Experimental data taken from DBAASP.
In brackets after ≈: the same amount, converted by molar mass.

How the values were obtained:
Assay in all cases: ≥ marks a high value that may be exact or a test limit, other limits are often not marked, values filed in µg/mL are converted to µM
[1] = system: Streptococcus mutans UA159
[2] = system: Streptococcus sanguinis ATCC 10556
[3] = system: Streptococcus sobrinus ATCC 6715
[4] = system: Candida albicans ATCC 90028
[5] = system: Enterobacter cloacae NHTCC 53001
[6] = system: Enterococcus faecalis ATCC 29212
[7] = system: Escherichia coli ATCC 25922
[8] = system: Klebsiella pneumoniae KK3 9904
[9] = system: Proteus mirabilis ATCC 25933
[10] = system: Pseudomonas aeruginosa ATCC 27853
[11] = system: Staphylococcus aureus NCTC 8325
[12] = system: Staphylococcus epidermidis RP62A

MIC [1] | MIC [2] | MIC [3] | MIC [4] | MIC [5] | MIC [6] | MIC [7] | MIC [8] | MIC [9] | MIC [10] | MIC [11] | MIC [12] | Compound
10.1 µM (≈ 16 µg/mL) | 20.2 µM (≈ 32 µg/mL) | 10.1 µM (≈ 16 µg/mL) | – | – | – | – | – | – | – | – | – | NCCCC[C@H](NC(=O)[C@H](CCCCN)NC(=O)[C@H](Cc1ccccc1)NC(=O)[C@H](Cc1ccccc1)NC(=O)[C@H](CCCCN)NC(=O)[C@H](CCCCN)NC(=O)[C@H](Cc1ccccc1)NC(=O)[C@H](Cc1ccccc1)NC(=O)[C@H](CCCCN)NC(=O)[C@@H](N)Cc1ccccc1)C(=O)N[C@@H](Cc1c[nH]c2ccccc12)C(=O)O [FKFFKKFFKKW]
– | – | – | ≥ 100 µM | 13 µM (≈ 26.3 µg/mL) | > 100 µM | 6 µM (≈ 12.1 µg/mL) | 25 µM (≈ 50.5 µg/mL) | ≥ 100 µM | 50 µM (≈ 101 µg/mL) | ≥ 50 µM | 25 µM (≈ 50.5 µg/mL) | CC(C)C[C@H](NC(=O)[C@H](C)NC(=O)[C@H](CCCCN)NC(=O)[C@H](C)NC(=O)[C@H](C)NC(=O)CNC(=O)[C@H](CCCCN)NC(=O)[C@H](CC(C)C)NC(=O)[C@H](CC(C)C)NC(=O)[C@H](CC(=O)O)NC(=O)[C@H](CCCCN)NC(=O)[C@H](Cc1ccccc1)NC(=O)CN)C(=O)N[C@H](C(=O)N[C@@H](CCCCN)C(=O)N[C@H](C(=O)N[C@H](C(=O)N[C@@H](CC(C)C)C(=O)N[C@@H](Cc1ccccc1)C(=O)O)C(C)C)[C@@H](C)O)C(C)C [GFKDLLKGAAKALVKTVLF]
– | – | – | ≥ 100 µM | 6 µM (≈ 15.5 µg/mL) | > 100 µM | 6 µM (≈ 15.5 µg/mL) | 13 µM (≈ 33.7 µg/mL) | ≥ 100 µM | 13 µM (≈ 33.7 µg/mL) | ≥ 50 µM | 13 µM (≈ 33.7 µg/mL) | CC[C@H](C)[C@H](NC(=O)CN)C(=O)N[C@@H](CCCCN)C(=O)N[C@@H](CC(=O)O)C(=O)N[C@@H](Cc1c[nH]c2ccccc12)C(=O)N[C@H](C(=O)N[C@@H](CCCCN)C(=O)NCC(=O)N[C@@H](C)C(=O)N[C@@H](C)C(=O)N[C@@H](CCCCN)C(=O)N[C@@H](CCCCN)C(=O)N[C@@H](CC(C)C)C(=O)N[C@H](C(=O)N[C@@H](CCCCN)C(=O)N[C@H](C(=O)N[C@H](C(=O)N[C@@H](C)C(=O)N[C@@H](CO)C(=O)N[C@@H](Cc1cnc[nH]1)C(=O)N[C@H](C(=O)N[C@@H](C)C(=O)N[C@@H](CC(N)=O)C(=O)N[C@@H](CCC(N)=O)C(=O)O)[C@@H](C)CC)C(C)C)[C@@H](C)O)[C@@H](C)CC)[C@@H](C)CC [GIKDWIKGAAKKLIKTVASHIANQ]
